± gives the expanded uncertainty stated by the source.
Experiment: xn = mol fraction of the nth substance listed
Conditions: 101 kPa, Liquid

CC(C)CO [2-methyl-1-propanol] + CCCCO
Conditions | mass density [kg/m3] | viscosity [mPa·s]
303.15 K, x2 = 0.101 | 794.896 ± 0.45 | 3.447 ± 0.057
303.15 K, x2 = 0.2029 | 795.74 ± 0.45 | 3.443 ± 0.057
303.15 K, x2 = 0.3008 | 796.558 ± 0.45 | 3.389 ± 0.057
303.15 K, x2 = 0.4 | 797.382 ± 0.45 | 3.313 ± 0.055
303.15 K, x2 = 0.5 | 798.209 ± 0.44 | 3.237 ± 0.054
303.15 K, x2 = 0.5999 | 799.026 ± 0.44 | 3.166 ± 0.053
303.15 K, x2 = 0.6999 | 799.838 ± 0.44 | 3.102 ± 0.052
303.15 K, x2 = 0.7993 | 800.635 ± 0.44 | 3.04 ± 0.051
303.15 K, x2 = 0.8995 | 801.426 ± 0.44 | 2.971 ± 0.05
308.15 K, x2 = 0.101 | 790.969 ± 0.46 | 2.987 ± 0.05
308.15 K, x2 = 0.2029 | 791.819 ± 0.46 | 2.983 ± 0.05
308.15 K, x2 = 0.3008 | 792.643 ± 0.45 | 2.939 ± 0.049
308.15 K, x2 = 0.4 | 793.476 ± 0.45 | 2.871 ± 0.048
308.15 K, x2 = 0.5 | 794.307 ± 0.45 | 2.804 ± 0.047
308.15 K, x2 = 0.5999 | 795.132 ± 0.45 | 2.752 ± 0.046
308.15 K, x2 = 0.6999 | 795.953 ± 0.45 | 2.708 ± 0.046
308.15 K, x2 = 0.7993 | 796.757 ± 0.45 | 2.669 ± 0.045
308.15 K, x2 = 0.8995 | 797.554 ± 0.44 | 2.62 ± 0.044
313.15 K, x2 = 0.101 | 786.977 ± 0.46 | 2.591 ± 0.044
313.15 K, x2 = 0.2029 | 787.84 ± 0.46 | 2.587 ± 0.044
313.15 K, x2 = 0.3008 | 788.67 ± 0.46 | 2.562 ± 0.043
313.15 K, x2 = 0.4 | 789.511 ± 0.46 | 2.511 ± 0.043
313.15 K, x2 = 0.5 | 790.349 ± 0.46 | 2.462 ± 0.042
313.15 K, x2 = 0.5999 | 791.184 ± 0.46 | 2.424 ± 0.041
313.15 K, x2 = 0.6999 | 792.012 ± 0.45 | 2.391 ± 0.041
313.15 K, x2 = 0.7993 | 792.829 ± 0.45 | 2.363 ± 0.04
313.15 K, x2 = 0.8995 | 793.633 ± 0.45 | 2.327 ± 0.04
318.15 K, x2 = 0.101 | 782.93 ± 0.47 | 2.236 ± 0.038
318.15 K, x2 = 0.2029 | 783.806 ± 0.47 | 2.234 ± 0.038
318.15 K, x2 = 0.3008 | 784.646 ± 0.47 | 2.219 ± 0.038
318.15 K, x2 = 0.4 | 785.496 ± 0.46 | 2.191 ± 0.038
318.15 K, x2 = 0.5 | 786.344 ± 0.46 | 2.158 ± 0.037
318.15 K, x2 = 0.5999 | 787.188 ± 0.46 | 2.129 ± 0.037
318.15 K, x2 = 0.6999 | 788.027 ± 0.46 | 2.111 ± 0.036
318.15 K, x2 = 0.7993 | 788.855 ± 0.46 | 2.094 ± 0.036
318.15 K, x2 = 0.8995 | 789.67 ± 0.46 | 2.068 ± 0.036
323.15 K, x2 = 0.101 | 778.816 ± 0.48 | 1.964 ± 0.034
323.15 K, x2 = 0.2029 | 779.704 ± 0.47 | 1.958 ± 0.034
323.15 K, x2 = 0.3008 | 780.558 ± 0.47 | 1.951 ± 0.034
323.15 K, x2 = 0.4 | 781.419 ± 0.47 | 1.931 ± 0.033
323.15 K, x2 = 0.5 | 782.279 ± 0.47 | 1.91 ± 0.033
323.15 K, x2 = 0.5999 | 783.136 ± 0.47 | 1.89 ± 0.033
323.15 K, x2 = 0.6999 | 783.985 ± 0.47 | 1.877 ± 0.033
323.15 K, x2 = 0.7993 | 784.825 ± 0.46 | 1.864 ± 0.032
323.15 K, x2 = 0.8995 | 785.654 ± 0.46 | 1.843 ± 0.032
328.15 K, x2 = 0.101 | 774.633 ± 0.48 | 1.68 ± 0.029
328.15 K, x2 = 0.2029 | 775.537 ± 0.48 | 1.692 ± 0.03
328.15 K, x2 = 0.3008 | 776.405 ± 0.48 | 1.689 ± 0.03
328.15 K, x2 = 0.4 | 777.281 ± 0.48 | 1.684 ± 0.029
328.15 K, x2 = 0.5 | 778.156 ± 0.47 | 1.673 ± 0.029
328.15 K, x2 = 0.5999 | 779.026 ± 0.47 | 1.668 ± 0.029
328.15 K, x2 = 0.6999 | 779.893 ± 0.47 | 1.662 ± 0.029
328.15 K, x2 = 0.7993 | 780.744 ± 0.47 | 1.658 ± 0.029
328.15 K, x2 = 0.8995 | 781.588 ± 0.47 | 1.65 ± 0.029
333.15 K, x2 = 0.101 | 770.368 ± 0.49 | 1.507 ± 0.027
333.15 K, x2 = 0.2029 | 771.292 ± 0.49 | 1.523 ± 0.027
333.15 K, x2 = 0.3008 | 772.177 ± 0.49 | 1.52 ± 0.027
333.15 K, x2 = 0.4 | 773.068 ± 0.48 | 1.511 ± 0.027
333.15 K, x2 = 0.5 | 773.961 ± 0.48 | 1.499 ± 0.027
333.15 K, x2 = 0.5999 | 774.846 ± 0.48 | 1.489 ± 0.026
333.15 K, x2 = 0.6999 | 775.732 ± 0.48 | 1.488 ± 0.026
333.15 K, x2 = 0.7993 | 776.596 ± 0.48 | 1.484 ± 0.026
333.15 K, x2 = 0.8995 | 777.457 ± 0.47 | 1.48 ± 0.026
338.15 K, x2 = 0.101 | 766.021 ± 0.5 | 1.342 ± 0.024
338.15 K, x2 = 0.2029 | 766.966 ± 0.49 | 1.363 ± 0.024
338.15 K, x2 = 0.3008 | 767.871 ± 0.49 | 1.361 ± 0.024
338.15 K, x2 = 0.4 | 768.778 ± 0.49 | 1.357 ± 0.024
338.15 K, x2 = 0.5 | 769.689 ± 0.49 | 1.351 ± 0.024
338.15 K, x2 = 0.5999 | 770.594 ± 0.49 | 1.343 ± 0.024
338.15 K, x2 = 0.6999 | 771.495 ± 0.48 | 1.341 ± 0.024
338.15 K, x2 = 0.7993 | 772.378 ± 0.48 | 1.338 ± 0.024
338.15 K, x2 = 0.8995 | 773.258 ± 0.48 | 1.335 ± 0.024
343.15 K, x2 = 0.101 | 761.578 ± 0.5 | 1.204 ± 0.022
343.15 K, x2 = 0.2029 | 762.548 ± 0.5 | 1.226 ± 0.022
343.15 K, x2 = 0.3008 | 763.474 ± 0.5 | 1.23 ± 0.022
343.15 K, x2 = 0.4 | 764.4 ± 0.5 | 1.228 ± 0.022
343.15 K, x2 = 0.5 | 765.333 ± 0.5 | 1.225 ± 0.022
343.15 K, x2 = 0.5999 | 766.26 ± 0.49 | 1.218 ± 0.022
343.15 K, x2 = 0.6999 | 767.182 ± 0.49 | 1.215 ± 0.022
343.15 K, x2 = 0.7993 | 768.085 ± 0.49 | 1.213 ± 0.022
343.15 K, x2 = 0.8995 | 768.986 ± 0.49 | 1.211 ± 0.022

From the NIST ThermoML archive (doi:10.1021/je900722m)
